According to ChEMBL document CHEMBL1201862, “PubChem BioAssay data set” (2004):
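Five concentrations, 48 hours, 96-well plates. The concentration for 50% growth inhibition is given as GI50.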 Active and inactive are the calls of the source. Rule as the data show it: active = GI50 up to about 1.1 µM and inactive = higher.

Assays:
Assay in all cases: inhibition of tumour cell growth, NCI panel, 48 h
[1] = test system: HCC 2998
[2] = test system: HCT-15
[3] = test system: HOP-92
[4] = test system: HT-29
[5] = test system: M14
[6] = test system: NCI-H460
[7] = test system: OVCAR-3
[8] = test system: OVCAR-4
[9] = test system: OVCAR-5
[10] = test system: SF-295
[11] = test system: SK-MEL-28
[12] = test system: SK-MEL-2
[13] = test system: SK-MEL-5
[14] = test system: U-251
[15] = test system: UACC-62
[16] = test system: A498
[17] = test system: COLO 205
[18] = test system: HCT-116
[19] = test system: NCI/ADR-RES
[20] = test system: RPMI-8226

| Structure (SMILES) | GI50 [1] | GI50 [2] | GI50 [3] | GI50 [4] | GI50 [5] | GI50 [6] | GI50 [7] | GI50 [8] | GI50 [9] | GI50 [10] | GI50 [11] | GI50 [12] | GI50 [13] | GI50 [14] | GI50 [15] | GI50 [16] | GI50 [17] | GI50 [18] | GI50 [19] | GI50 [20] |
| --- | --- | --- | --- | --- | --- | --- | --- | --- | --- | --- | --- | --- | --- | --- | --- | --- | --- | --- | --- | --- |
| OCc1nnn2c1CCC2 | > 100 µM (inactive) | > 100 µM | > 100 µM (inactive) | > 100 µM (inactive) | > 100 µM (inactive) | > 100 µM (inactive) | > 100 µM (inactive) | 76 µM (inactive) | > 100 µM (inactive) | > 100 µM (inactive) | > 100 µM (inactive) | > 100 µM (inactive) | > 100 µM (inactive) | > 100 µM (inactive) | > 100 µM (inactive) | – | – | – | – | – |
| S=c1nc(Nc2ccc(Br)cc2)c2c3c(sc2[nH]1)CN(N1CCc2c(sc4[nH]c(=S)nc(Nc5ccc(Br)cc5)c24)C1)CC3 | 23.1 µM (inactive) | 22.5 µM | – | 15.5 µM (inactive) | 8.36 µM (inactive) | 23.8 µM (inactive) | 25.1 µM (inactive) | 30.2 µM (inactive) | 16 µM (inactive) | 19.1 µM (inactive) | 11.6 µM (inactive) | 14.9 µM (inactive) | 12 µM (inactive) | 9.42 µM (inactive) | 15.1 µM (inactive) | 11.3 µM (inactive) | 23.6 µM (inactive) | 12.3 µM (inactive) | > 50 µM (inactive) | 19.2 µM (inactive) |
| CCC(=O)NC(OCC1(CC)COC1)(C(F)(F)F)C(F)(F)F | > 100 µM (inactive) | > 100 µM | – | > 100 µM (inactive) | > 100 µM (inactive) | > 100 µM (inactive) | > 100 µM (inactive) | – | > 100 µM (inactive) | – | > 100 µM (inactive) | > 100 µM (inactive) | – | > 100 µM (inactive) | > 100 µM (inactive) | > 100 µM (inactive) | – | > 100 µM (inactive) | – | > 100 µM (inactive) |
| O=c1cnn(CCOCP(=O)(O)O)c(=O)[nH]1 | > 100 µM (inactive) | – | > 100 µM (inactive) | > 100 µM (inactive) | > 100 µM (inactive) | > 100 µM (inactive) | > 100 µM (inactive) | – | > 100 µM (inactive) | – | > 100 µM (inactive) | > 100 µM (inactive) | > 100 µM (inactive) | > 100 µM (inactive) | – | > 100 µM (inactive) | > 100 µM (inactive) | – | > 100 µM (inactive) | > 100 µM (inactive) |
| CC(=O)OCC1OC(n2cc(F)c(=O)[nH]c2=O)C(N)C(OC(C)=O)C1OC(C)=O (centres undefined) | > 100 µM (inactive) | > 100 µM | > 100 µM (inactive) | > 100 µM (inactive) | – | > 100 µM (inactive) | > 100 µM (inactive) | > 100 µM (inactive) | > 100 µM (inactive) | > 100 µM (inactive) | – | > 100 µM (inactive) | > 100 µM (inactive) | > 100 µM (inactive) | > 100 µM (inactive) | > 100 µM (inactive) | > 100 µM (inactive) | > 100 µM (inactive) | > 100 µM (inactive) | > 100 µM (inactive) |
| S=c1sc2cscc2s1 | 18.7 µM (inactive) | 34 µM | 24.8 µM (inactive) | 44.1 µM (inactive) | 19.1 µM (inactive) | 24.1 µM (inactive) | 19.5 µM (inactive) | 16.4 µM (inactive) | 69.2 µM (inactive) | 54.1 µM (inactive) | 21.9 µM (inactive) | 38 µM (inactive) | 27.9 µM (inactive) | 53.2 µM (inactive) | 18.2 µM (inactive) | 71.6 µM (inactive) | 17.7 µM (inactive) | 19.5 µM (inactive) | – | 47.6 µM (inactive) |
| Cc1c(N2C(=O)CS(=O)(=O)C2c2cccc(Oc3ccccc3)c2)c(=O)n(-c2ccccc2)n1C (centres undefined) | – | 61.5 µM | 44.2 µM (inactive) | 34.4 µM (inactive) | 23.7 µM (inactive) | 37.2 µM (inactive) | 26.8 µM (inactive) | 14.6 µM (inactive) | > 100 µM (inactive) | 84.9 µM (inactive) | > 100 µM (inactive) | 72.9 µM (inactive) | 35.6 µM (inactive) | > 100 µM (inactive) | 66.2 µM (inactive) | < 0.01 µM (active) | 28 µM (inactive) | 26.7 µM (inactive) | 61.2 µM (inactive) | 27.2 µM (inactive) |
| O=C(Nc1nc2ncn(CCNCc3ccccc3)c2c(=O)[nH]1)c1ccccc1 | > 100 µM (inactive) | > 100 µM | > 100 µM (inactive) | > 100 µM (inactive) | > 100 µM (inactive) | > 100 µM (inactive) | > 100 µM (inactive) | > 100 µM (inactive) | > 100 µM (inactive) | > 100 µM (inactive) | > 100 µM (inactive) | > 100 µM (inactive) | > 100 µM (inactive) | > 100 µM (inactive) | > 100 µM (inactive) | > 100 µM (inactive) | > 100 µM (inactive) | > 100 µM (inactive) | – | 65.3 µM (inactive) |
| COc1ccc2[nH]c(Cl)c(/C=C3/C(=O)Nc4cc(C)c(OC)cc43)c2c1 | 4.89 µM (inactive) | 2.91 µM | 11.7 µM (inactive) | 4.23 µM (inactive) | 3.98 µM (inactive) | 3.36 µM (inactive) | 2.66 µM (inactive) | – | 6.93 µM (inactive) | 1.98 µM (inactive) | 9.38 µM (inactive) | 2.4 µM (inactive) | 2.25 µM (inactive) | 4.88 µM (inactive) | 3.55 µM (inactive) | 5.82 µM (inactive) | 2.02 µM (inactive) | 4.59 µM (inactive) | 2.44 µM (inactive) | 4.32 µM (inactive) |
| CCN(CC)CCNCc1cc(Cl)cc2c1OCOC2 | > 10 µM (inactive) | > 10 µM | – | > 10 µM (inactive) | > 10 µM (inactive) | > 10 µM (inactive) | > 10 µM (inactive) | > 10 µM (inactive) | > 10 µM (inactive) | > 10 µM (inactive) | > 10 µM (inactive) | > 10 µM (inactive) | > 10 µM (inactive) | > 10 µM (inactive) | > 10 µM (inactive) | > 10 µM (inactive) | > 10 µM (inactive) | > 10 µM (inactive) | > 10 µM (inactive) | > 10 µM (inactive) |
| CCn1cc(C(c2ccc(Cl)cc2)n2ccnc2)c2cc(Br)ccc21 (centres undefined) | 13.2 µM (inactive) | 12.2 µM | 4.89 µM (inactive) | 7.55 µM (inactive) | 13.3 µM (inactive) | – | 10.3 µM (inactive) | 9.64 µM (inactive) | 11.7 µM (inactive) | 10.8 µM (inactive) | – | 17 µM (inactive) | 15.7 µM (inactive) | 14.7 µM (inactive) | 10.9 µM (inactive) | 13.4 µM (inactive) | 11.6 µM (inactive) | 16.1 µM (inactive) | 12.6 µM (inactive) | 3.48 µM (inactive) |
| CC(=O)OCC1=C(COC(C)=O)C(=O)c2c(O)ccc(O)c2C1=O | 15.9 µM (inactive) | 10.4 µM | 2.54 µM (inactive) | 11.7 µM (inactive) | 5.3 µM (inactive) | – | 7.1 µM (inactive) | 10.8 µM (inactive) | 16.4 µM (inactive) | 13.4 µM (inactive) | 4.9 µM (inactive) | 3.11 µM (inactive) | 14.8 µM (inactive) | 13.1 µM (inactive) | 5.56 µM (inactive) | 18.4 µM (inactive) | 2.38 µM (inactive) | 12.1 µM (inactive) | – | 3.2 µM (inactive) |
| CO/N=C1/c2sccc2[C@H](NC(=O)CNC(=O)OC(C)(C)C)[C@@H]1O | > 100 µM (inactive) | > 100 µM | > 100 µM (inactive) | > 100 µM (inactive) | > 100 µM (inactive) | > 100 µM (inactive) | > 100 µM (inactive) | > 100 µM (inactive) | > 100 µM (inactive) | > 100 µM (inactive) | > 100 µM (inactive) | > 100 µM (inactive) | > 100 µM (inactive) | > 100 µM (inactive) | > 100 µM (inactive) | > 100 µM (inactive) | > 100 µM (inactive) | > 100 µM (inactive) | > 100 µM (inactive) | – |
| C/C=C1\NC(=O)[C@H]2CSSCCC=C[C@H](CC(=O)N[C@H](C(C)C)C(=O)N2)OC(=O)[C@H](C(C)C)NC1=O | < 0.01 µM (active) | 0.0331 µM | 0.000366 µM (active) | 0.000131 µM (active) | 0.000299 µM (active) | 0.00124 µM (active) | 0.000412 µM (active) | 0.00201 µM (active) | – | 0.000117 µM (active) | 9.98e-05 µM (active) | – | 6.65e-05 µM (active) | – | 0.000188 µM (active) | 0.00015 µM (active) | – | 9.2e-05 µM (active) | 0.0619 µM (active) | 0.000147 µM (active) |
| CN1C(=O)CN2C(Cl)(Cl)C2(c2ccccc2)c2cc(Cl)ccc21 (centres undefined) | 65.3 µM (inactive) | > 100 µM | 13.5 µM (inactive) | 67.5 µM (inactive) | > 100 µM (inactive) | 96.2 µM (inactive) | > 100 µM (inactive) | > 100 µM (inactive) | > 100 µM (inactive) | 27 µM (inactive) | > 100 µM (inactive) | > 100 µM (inactive) | > 100 µM (inactive) | > 100 µM (inactive) | > 100 µM (inactive) | – | > 100 µM (inactive) | 65.3 µM (inactive) | – | > 100 µM (inactive) |
| CN(C)c1ccc(/C=N/c2ccc(Oc3ccc(Cl)cc3)c(Cl)c2)cc1 | 17.7 µM (inactive) | 18.9 µM | 18.2 µM (inactive) | 16.1 µM (inactive) | 28.1 µM (inactive) | 19.5 µM (inactive) | 12.9 µM (inactive) | 22.1 µM (inactive) | 28.3 µM (inactive) | 24.7 µM (inactive) | 19.3 µM (inactive) | 14.5 µM (inactive) | 15 µM (inactive) | 16.9 µM (inactive) | 17.5 µM (inactive) | – | 22.1 µM (inactive) | 5.2 µM (inactive) | 16.2 µM (inactive) | 11.4 µM (inactive) |
